Results as given in patent publication US10584116B2, “Heterocyclic sulfonamide derivative and medicine containing same” (EA Pharma Co., Ltd., priority 2016, dated 2020).

Molecular target: human TRPA1 (Homo sapiens (Human), UniProt O75762)
Test: Measurement of TRPA1 antagonist activity (intracellular calcium increase induced by allylisothiocyanate in 293T cells transfected with human TRPA1)
Assay type: cell-based
Details: 293T cells expressing human TRPA1, allylisothiocyanate stimulation, FLIPR Calcium4 fluorescence; read-out: hTRPA1 IC50
Method: Measurement of TRPA1 Antagonist Activity
Human TRPA1 Expression Plasmid
Using cDNA encoding human TRPA1 (GenBank accession No. NM_007332) (manufactured by Kazusa DNA Research Institute, item No. FHC07217) as a template, primer 1 (SEQ ID NO: 1) and primer 2 (SEQ ID NO: 2), PCR by PfuUltra High-Fidelity DNA Polymerase (Stratagene) was performed, and full-length human TRPA1 gene was amplified.
A recognition site (underlined) of restriction enzyme HindIII was added to the 5′ end of human TRPA1 gene, and XbaI site (underlined) was added to the 3′ end of human TRPA1 gene, and GTT of the template sequence was changed to termination codon TAG (bold). The obtained double stranded DNA was enzyme-digested with HindIII and XbaI, and introduced into a multicloning site of expression plasmid pcDNA3.1/zeo(+) (manufactured by Invitrogen) to give a human TRPA1 expression plasmid.
Human embryonic kidney-derived 293T cells were cultured in Dulbecco's Modified Eagle Medium containing 10% fetal bovine serum, 10 unit penicillin, and 10 μg streptomycin. One day before assay, 3×10^6 of 293T cells were plated on a petri dish having a diameter of 10 cm, and cultured in a CO2 incubator for 24 hr. OPTI-MEM I Reduced Serum Media (Invitrogen) (600 μL), Mirus TransIT-293 (Mirus Bio) (18 μL), and human TRPA1 expression plasmid (6 μg) were mixed, the total amount of the mixture was added to the cells on the petri dish to allow for gene transfer. The cells were recovered about for 8 hr later, plated on a poly-D-lysine coated 384 well black/clear bottom plate at 12,000 cells/well, and cultured overnight.
Measurement of Intracellular Calcium Increase
The medium was removed from the 384 well plate, calcium indicator (Molecular Device, trade name: FLIPR Calcium4 Assay Kit) dissolved in HBSS (Thermo Fisher Scientific) (pH 7.2) containing 20 mM HEPES was added (38 μL/well), and the cells were stained in a CO2 incubator for 1 hr. The 384 well plate was stood at room temperature for not less than 15 min, set on FDSS7000 (Hamamatsu Photonics K.K.), and a test substance solution was added at 10 μL/well. After 10 min, allylisothiocyanate solution (12 μL/well) was added, the relative fluorescence intensity was measured for 5 min after addition of the allylisothiocyanate solution.
Test Substance Preparation
Preparation of Test Substance Solution and Allylisothiocyanate Solution
A test substance solution was prepared to have a composition of HBSS (Thermo Fisher Scientific) (pH 7.2) containing 0.48% dimethyl sulfoxide, a test substance at 4.8-fold concentration of the evaluation concentration, 0.1% bovine serum albumin and 20 mM HEPES. An allylisothiocyanate solution was prepared to have a composition of HBSS (Thermo Fisher Scientific) (pH 7.2) containing 0.1% dimethyl sulfoxide, 100 μM allylisothiocyanate, 0.1% bovine serum albumin and 20 mM HEPES.
Calculation of Antagonist Activity
The activity rate of a test substance at each concentration was calculated, wherein the relative fluorescence intensity change of a well free of a test substance and containing allylisothiocyanate is 100% activity rate, and the relative fluorescence intensity change of a well free of a test substance and allylisothiocyanate is 0% activity rate. The inhibitory rate of a test substance at each concentration was calculated by subtracting the activity rate of the test substance from 100% activity rate, and the concentration of a test substance showing 50% inhibitory rate was calculated as IC50 from the sigmoid approximate curve by XLfit (idbs).

human TRPA1, sequence (O75762 whole entry): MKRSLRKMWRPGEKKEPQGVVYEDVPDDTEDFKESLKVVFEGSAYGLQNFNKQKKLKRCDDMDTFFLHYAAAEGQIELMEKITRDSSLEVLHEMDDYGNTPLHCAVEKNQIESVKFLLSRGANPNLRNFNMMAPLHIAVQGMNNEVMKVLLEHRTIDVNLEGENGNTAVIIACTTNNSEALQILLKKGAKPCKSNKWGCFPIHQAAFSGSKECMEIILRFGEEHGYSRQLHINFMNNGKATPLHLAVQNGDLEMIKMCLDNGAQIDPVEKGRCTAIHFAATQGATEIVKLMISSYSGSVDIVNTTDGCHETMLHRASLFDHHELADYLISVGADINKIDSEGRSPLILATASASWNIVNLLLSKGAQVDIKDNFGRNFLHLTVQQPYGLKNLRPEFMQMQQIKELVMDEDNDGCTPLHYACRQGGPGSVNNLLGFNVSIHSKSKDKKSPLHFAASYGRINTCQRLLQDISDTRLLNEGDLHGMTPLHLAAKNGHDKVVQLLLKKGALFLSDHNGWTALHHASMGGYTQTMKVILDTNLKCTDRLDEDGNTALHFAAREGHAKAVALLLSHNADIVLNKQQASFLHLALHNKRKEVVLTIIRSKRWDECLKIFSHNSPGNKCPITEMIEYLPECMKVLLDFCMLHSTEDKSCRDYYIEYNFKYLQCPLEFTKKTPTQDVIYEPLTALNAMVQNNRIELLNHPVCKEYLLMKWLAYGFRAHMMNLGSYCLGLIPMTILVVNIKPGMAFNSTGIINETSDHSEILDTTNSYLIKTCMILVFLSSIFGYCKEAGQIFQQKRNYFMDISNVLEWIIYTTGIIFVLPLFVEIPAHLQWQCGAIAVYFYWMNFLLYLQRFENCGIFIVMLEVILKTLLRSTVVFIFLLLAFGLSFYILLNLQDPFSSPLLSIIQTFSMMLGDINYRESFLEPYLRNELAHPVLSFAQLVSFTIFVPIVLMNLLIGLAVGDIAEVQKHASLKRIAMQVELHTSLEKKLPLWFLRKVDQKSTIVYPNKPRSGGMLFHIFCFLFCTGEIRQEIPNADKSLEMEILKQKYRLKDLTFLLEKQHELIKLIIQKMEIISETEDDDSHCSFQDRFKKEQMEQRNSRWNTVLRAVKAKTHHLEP

Row | Structure (SMILES) | IC50
1 | Cn1c(=O)c(CNC(=O)[C@@H]2CCCN2S(=O)(=O)c2cc3cc(F)ccc3o2)cn(-c2ccc(C(F)(F)F)cc2)c1=O [Example 5, (2S)-1-(5-fluorobenzofuran-2-yl)sulfonyl-N-[[3-methyl-2,4-dioxo-1-[4-(trifluoromethyl)phenyl]-pyrimidin-5-yl]methyl]pyrrolidine-2-carboxamide] | 21 nM
2 | O=C(NCc1cn(-c2ccc(C(F)(F)F)cc2)c(=O)n(C2CCOCC2)c1=O)[C@@H]1CCCN1S(=O)(=O)c1cc2ccccc2o1 [Example 9, (2S)-1-(benzofuran-2-ylsulfonyl)-N-[[2,4-dioxo-3-tetrahydropyran-4-yl-1-[4-(trifluoromethyl)phenyl]-pyrimidin-5-yl]methyl]pyrrolidine-2-carboxamide] | 140 nM
3 | CC(C)n1c(=O)c(CNC(=O)[C@@H]2CCCN2S(=O)(=O)c2ccc(Cl)s2)cn(-c2ccc(C(F)(F)F)cc2)c1=O [Example 11, (2S)-1-[(5-chloro-2-thienyl)sulfonyl]-N-[[3-isopropyl-2,4-dioxo-1-[4-(trifluoromethyl)phenyl]-pyrimidin-5-yl]methyl]pyrrolidine-2-carboxamide] | 33 nM
4 | CC(C)n1c(=O)c(CNC(=O)[C@@H]2CCCN2S(=O)(=O)c2cc3cnccc3o2)cn(-c2ccc(C(F)(F)F)cc2)c1=O [Example 23, (2S)-1-fro[3,2-c]pyridin-2-ylsulfonyl-N-[[3-isopropyl-2,4-dioxo-1-[4-(trifluoromethyl)phenyl]-pyrimidin-5-yl]methyl]pyrrolidine-2-carboxamide] | 20 nM
5 | CC(C)n1cc(CNC(=O)[C@@H]2CCCN2S(=O)(=O)c2cc3cc(F)ccc3o2)cc(-c2ccc(C(F)(F)F)nc2)c1=O [Example 49, (2S)-1-(5-fluorobenzofuran-2-yl)sulfonyl-N-[[1-isopropyl-6-oxo-5-[6-(trifluoromethyl)-3-pyridyl]-3-pyridyl]methyl]pyrrolidine-2-carboxamide] | 45 nM
6 | CC(C)n1c(=O)c(CNC(=O)[C@@H]2C=CCN2S(=O)(=O)c2cc3cc(F)ccc3o2)cn(-c2ccc(C(F)(F)F)cc2)c1=O [Example 16, (2S)-1-(5-fluorobenzofuran-2-yl)sulfonyl-N-[[3-isopropyl-2,4-dioxo-1-[4-(trifluoromethyl)phenyl]-pyrimidin-5-yl]methyl]-2,5-dihydropyrrole-2-carboxamide] | 3.6 nM
7 | CC(C)n1c(=O)c(CNC(=O)[C@@H]2CCCN2S(=O)(=O)c2cc3ccccc3o2)cn(-c2ccc(C(F)(F)F)cn2)c1=O [Example 33, (2S)-1-(benzofuran-2-ylsulfonyl)-N-[[3-isopropyl-2,4-dioxo-1-[5-(trifluoromethyl)-2-pyridyl]pyrimidin-5-yl]methyl]pyrrolidine-2-carboxamide] | 44 nM
8 | CCn1c(=O)c(CNC(=O)[C@@H]2CCCN2S(=O)(=O)c2cc3ccccc3o2)cn(-c2ccc(C(F)(F)F)cc2)c1=O [Example 2, (2S)-1-(benzofuran-2-ylsulfonyl)-N-[[3-ethyl-2,4-dioxo-1-[4-(trifluoromethyl)phenyl]pyrimidin-5-yl]methyl]pyrrolidine-2-carboxamide] | 26 nM
9 | CC(C)n1c(=O)c(CNC(=O)[C@@H]2[C@@H](O)CCN2S(=O)(=O)c2cc3cc(F)ccc3o2)cn(-c2ccc(C(F)(F)F)cn2)c1=O [Example 35, (2S,3S)-1-(5-fluorobenzofuran-2-yl)sulfonyl-3-hydroxy-N-[[3-isopropyl-2,4-dioxo-1-[5-(trifluoromethyl)-2-pyridyl]pyrimidin-5-yl]methyl]pyrrolidine-2-carboxamide] | 160 nM
10 | CC(C)n1cc(-c2ccc(C(F)(F)F)nc2)cc(CNC(=O)[C@@H]2CCCN2S(=O)(=O)c2cc3cc(F)ccc3o2)c1=O [Example 37, (2S)-1-(5-fluorobenzofuran-2-yl)sulfonyl-N-[[1-isopropyl-2-oxo-5-[6-(trifluoromethyl)-3-pyridyl]-3-pyridyl]methyl]pyrrolidine-2-carboxamide] | 31 nM
